Source: the Biogen ADME set (Fang et al. 2023)
≈ marks a conversion by molar mass, not a printed value.

Conditions: for aqueous solubility: pH 6.8

| Structure (SMILES) | MDR1-MDCK efflux ratio | intrinsic clearance, human liver microsomes | intrinsic clearance, rat liver microsomes | aqueous solubility | fraction unbound, human plasma | fraction unbound, rat plasma |
| --- | --- | --- | --- | --- | --- | --- |
| COCC1(CNS(=O)(=O)c2ccc3[nH]cnc3c2)CCC1 | 32.8 | 16.2 mL/min/kg | 860 mL/min/kg |  |  |  |
| Cc1ccc(CCC(=O)Nc2nccc3sccc23)o1 | 0.465 | 66.2 mL/min/kg | 1140 mL/min/kg |  |  |  |
| COCCN(Cc1cccs1)Cc1cccc(C)c1O |  | 124 mL/min/kg | 2100 mL/min/kg | 1.05 µg/mL (≈ 3.6 µM) |  |  |
| Cc1cc(OCC(=O)N2CCC(n3c(=O)[nH]c4ccccc43)CC2)ccc1Cl |  | 432 mL/min/kg | 1450 mL/min/kg |  |  |  |
| CCc1ccccc1S(=O)(=O)NCCc1cn[nH]c1 | 2.65 | 34.8 mL/min/kg | 533 mL/min/kg |  |  |  |
| c1cnc(-n2cccn2)c(CNC2CCCC2)c1 | 0.951 | ≤ 4.74 mL/min/kg | 40.3 mL/min/kg | 30.4 µg/mL (≈ 125 µM) |  |  |
| C=CC(=O)Nc1cccc(Oc2nc(Nc3ccc(N4CCN(C)CC4)cc3)nc3ccoc23)c1 | 22 | 16.2 mL/min/kg | 329 mL/min/kg | 28.6 µg/mL (≈ 60.8 µM) | 0.014 | 0.00619 |
| Cc1ccnc(NC(=O)CN(C)C(=O)c2ccc(Cl)cc2)c1 | 1.12 | 16.5 mL/min/kg | 156 mL/min/kg | 63.3 µg/mL (≈ 199 µM) |  |  |
| Cc1nn(C)c(C)c1CNc1ccc(N2CCN(C)CC2)nc1 |  | ≤ 4.74 mL/min/kg | ≤ 10.7 mL/min/kg |  |  |  |
| COc1ccc(C(=O)Nc2cc(-c3ccc(F)c(F)c3)no2)cc1 | 0.43 |  |  | 0.35 µg/mL (≈ 1.06 µM) |  |  |
| COC(=O)N1CCCN(C(=O)C(=O)Nc2cccc(C(C)C)c2)CC1 | 1.07 | 66.2 mL/min/kg | 1220 mL/min/kg | 58.4 µg/mL (≈ 168 µM) |  |  |
| N#Cc1ccc2[nH]c(O)c(-c3ccc(CN4CCOCC4)cn3)c2c1 | 26 | 11.2 mL/min/kg | 70.8 mL/min/kg | 25.9 µg/mL (≈ 77.6 µM) |  | 0.118 |
| COc1ccc(-c2nc3cc(C)ccc3cc2CN(C)Cc2nccn2C)cc1 | 4.84 | 296 mL/min/kg | 2500 mL/min/kg | 18 µg/mL (≈ 46.6 µM) |  |  |
| CN(C)c1nc(N)nc(Sc2ccccc2)n1 | 0.746 | 108 mL/min/kg | 642 mL/min/kg | 3.11 µg/mL (≈ 12.6 µM) |  |  |
| COc1cc(Br)c2c(=O)[nH]c(C)nc2c1 | 0.691 | 13.9 mL/min/kg | 148 mL/min/kg |  |  |  |
| O=S(=O)(Nc1ccc(C(O)(C(F)(F)F)C(F)(F)F)cc1)c1ccccc1 |  | 7.61 mL/min/kg | 17.1 mL/min/kg |  |  |  |
| Cc1ccccc1S(=O)(=O)Nc1c(C)ccnc1Cl | 0.795 | ≤ 4.74 mL/min/kg | 194 mL/min/kg |  |  |  |
| Clc1cccc(CNc2nc(C3CC3)no2)c1 | 0.476 | 22 mL/min/kg | 165 mL/min/kg | 29.3 µg/mL (≈ 117 µM) |  |  |
| Cc1oc2ncnc(NCc3cc(F)cc4c3OCOC4)c2c1C | 0.553 | 127 mL/min/kg | 2040 mL/min/kg |  |  |  |
| Cn1cc(-c2nc(C(=O)Nc3ccc4c(c3)OCCCO4)cs2)cn1 |  | 8.94 mL/min/kg | 226 mL/min/kg | 34 µg/mL (≈ 95.4 µM) |  |  |
| COc1ccc(S(=O)(=O)CCC(=O)Nc2ccc3c(c2)N(C)C(=O)CO3)cc1 | 27.6 | ≤ 4.74 mL/min/kg | 109 mL/min/kg | 62.2 µg/mL (≈ 154 µM) |  |  |
| O=C(NCc1nnc2n1-c1ccccc1CC2)c1ccc2ccccc2c1 | 6.88 | 28.6 mL/min/kg | 517 mL/min/kg | 34.3 µg/mL (≈ 96.9 µM) |  |  |
| COc1ccc(CNC(=O)CCSc2nc3c(=O)n(C)c(=O)n(C)c3n2C)cc1 |  | 52 mL/min/kg | 247 mL/min/kg |  |  |  |
| Nc1nnc(SCCSC2CCCCC2)n1C1CC1 | 3.81 | 48.5 mL/min/kg | 582 mL/min/kg |  |  |  |
| CC1=CCN(C(=O)c2cc(C)nc3cc(C)cc(C)c23)CC1 | 1.03 | 97.7 mL/min/kg | 2140 mL/min/kg |  |  |  |
| Cc1nc(CN2C[C@@H](c3ccc4c(c3)OCO4)[C@@H]3[C@H]2C2CCN3CC2)co1 | 53.4 | 96.7 mL/min/kg | 205 mL/min/kg | 48.3 µg/mL (≈ 131 µM) |  |  |
| CCn1nccc1-c1n[nH]c(=O)n1Cc1ccccc1 |  |  |  | 27 µg/mL (≈ 100 µM) |  |  |
| CCN(Cc1ccccc1)C(=O)c1ccc(O)cc1O | 0.83 | ≤ 4.74 mL/min/kg | 726 mL/min/kg | 46.7 µg/mL (≈ 172 µM) |  |  |
| N#CCc1ccc(OCc2ccncc2)cc1 |  | 53.3 mL/min/kg | 373 mL/min/kg |  |  |  |
